Reference: patent US12479844B2, “Ion channel modulators” (Praxis Precision Medicines, Inc., priority 2018, dated 2025)

Target: T1, human NaV1.6 (hNaV1.6) (Homo sapiens, UniProt Q9UQD0)
T1 construct: expressed in transfected cells; host or cells: HEK-293
Experiment: Modulation of late sodium current (INaL), PatchXpress high throughput electrophysiology
Assay type: cell-based
Settings: HEK293, HEK-293 cells expressing recombinant human NaV1.6, late current evoked by 300 nM ATX-II, read-out: NaV 1.6 Assay Data (percent inhibition of INaL at hNaV1.6)
Protocol: Functional characterization of exemplary compounds to modulate INaL expressed by the NaV1.6 voltage-gated sodium channel was accomplished using the PatchXpress™ high throughput electrophysiology platform (Molecular Devices, Sunnyvale, CA). HEK-293 cells expressing recombinant, human NaV1.6 (hNaV1.6) were grown in DMEM/high-glucose Dulbecco's modified, 10% FBS, 2 mM sodium pyruvate, 10 mM HEPES and 400 μg/mL G418. Cells were grown to 50%-80% confluency prior to harvesting. Trypsinized cells were washed, allowed to recover for 1 hour and then resuspended in extracellular recording solution at a concentration of 1×10^6 cells/ml. The onboard liquid handling facility of the PatchXpress was used for dispensing cells and applying test compounds. NaV late currents were evoked by the application of 300 nM ATX-II. INaL was evoked by depolarizing pulses to 0 mV for 200 ms from a non-inactivating holding potential (e.g., −120 mV) at a frequency of 0.1 Hz. INaL amplitude and stability were determined by analyzing the mean current amplitude over the final 20 ms of thetest pulse. Following steady state block with exemplary compounds (e.g., as described herein), a Na+ free solution containing an impermeant cation (e.g., Choline or NDMG) was added to confirm the identify of the sodium current. Percent steady-state inhibition of INaL was calculated as: [(INaL_compound)/(INaL_control)]*100, where INaL_compound and INaL_control represent INaL recorded in the presence or absence of compound, respectively.

T1 sequence (Q9UQD0 whole entry): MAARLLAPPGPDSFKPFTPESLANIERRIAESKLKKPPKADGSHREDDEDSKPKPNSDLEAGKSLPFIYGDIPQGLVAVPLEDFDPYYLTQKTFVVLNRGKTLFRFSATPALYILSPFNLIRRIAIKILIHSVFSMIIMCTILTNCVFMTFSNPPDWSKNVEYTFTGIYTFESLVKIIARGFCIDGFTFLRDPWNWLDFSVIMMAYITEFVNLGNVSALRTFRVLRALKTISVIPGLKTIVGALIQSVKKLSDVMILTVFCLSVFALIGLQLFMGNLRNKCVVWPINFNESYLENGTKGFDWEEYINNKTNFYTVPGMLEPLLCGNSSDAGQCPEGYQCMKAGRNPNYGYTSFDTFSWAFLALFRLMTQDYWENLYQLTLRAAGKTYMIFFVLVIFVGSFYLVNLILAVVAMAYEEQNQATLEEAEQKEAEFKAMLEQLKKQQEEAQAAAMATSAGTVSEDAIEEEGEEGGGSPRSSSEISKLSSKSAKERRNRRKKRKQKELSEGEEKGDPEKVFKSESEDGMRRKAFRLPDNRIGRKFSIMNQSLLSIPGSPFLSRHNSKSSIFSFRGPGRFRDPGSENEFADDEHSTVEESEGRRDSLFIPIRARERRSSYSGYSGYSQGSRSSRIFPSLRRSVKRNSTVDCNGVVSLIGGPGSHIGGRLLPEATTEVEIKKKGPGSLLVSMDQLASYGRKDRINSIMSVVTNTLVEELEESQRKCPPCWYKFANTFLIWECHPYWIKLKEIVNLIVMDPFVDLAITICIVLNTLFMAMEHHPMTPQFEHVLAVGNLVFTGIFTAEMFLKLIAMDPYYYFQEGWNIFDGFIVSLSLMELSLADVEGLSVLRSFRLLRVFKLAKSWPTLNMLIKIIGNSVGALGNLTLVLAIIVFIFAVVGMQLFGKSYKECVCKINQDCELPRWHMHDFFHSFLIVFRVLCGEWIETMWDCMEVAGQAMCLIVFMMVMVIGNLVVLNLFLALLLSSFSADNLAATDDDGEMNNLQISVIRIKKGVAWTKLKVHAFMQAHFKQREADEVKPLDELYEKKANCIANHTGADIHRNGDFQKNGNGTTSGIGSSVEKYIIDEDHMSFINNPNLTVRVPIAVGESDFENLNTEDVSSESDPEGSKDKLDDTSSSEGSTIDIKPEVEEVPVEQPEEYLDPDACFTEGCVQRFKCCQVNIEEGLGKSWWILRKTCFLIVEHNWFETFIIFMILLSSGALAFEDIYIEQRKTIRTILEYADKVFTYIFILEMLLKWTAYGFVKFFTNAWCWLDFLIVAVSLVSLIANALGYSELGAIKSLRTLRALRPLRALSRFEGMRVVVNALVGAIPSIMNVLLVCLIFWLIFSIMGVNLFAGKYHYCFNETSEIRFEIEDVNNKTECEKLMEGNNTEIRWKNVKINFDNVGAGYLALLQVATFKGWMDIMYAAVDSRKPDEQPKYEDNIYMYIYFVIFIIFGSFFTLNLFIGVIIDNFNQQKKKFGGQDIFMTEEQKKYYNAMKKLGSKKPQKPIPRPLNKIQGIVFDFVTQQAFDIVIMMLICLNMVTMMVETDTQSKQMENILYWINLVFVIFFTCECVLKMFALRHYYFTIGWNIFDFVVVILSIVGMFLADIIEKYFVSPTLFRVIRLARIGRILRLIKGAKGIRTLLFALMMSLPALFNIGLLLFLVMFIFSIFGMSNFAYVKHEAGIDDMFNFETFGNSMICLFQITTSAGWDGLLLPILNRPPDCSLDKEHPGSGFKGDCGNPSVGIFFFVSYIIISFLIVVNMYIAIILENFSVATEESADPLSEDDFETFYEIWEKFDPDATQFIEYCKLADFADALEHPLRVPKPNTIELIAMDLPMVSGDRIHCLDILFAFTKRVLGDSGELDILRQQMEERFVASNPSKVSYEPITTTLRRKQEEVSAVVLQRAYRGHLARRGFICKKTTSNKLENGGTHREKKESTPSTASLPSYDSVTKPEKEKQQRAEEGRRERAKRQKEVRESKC

For `Cc1cc(OC(F)(F)F)ccc1-c1cn2c(C(F)(F)OC3CC3)nnc2cn1` [Compound 12, 3-[cyclopropoxy(difluoro)methyl]-6-[2-methyl-4-(trifluoromethoxy)phenyl]-[1,2,4]triazolo[4,3-a]pyrazine], which inhibition at 1 µM is on record?
Its inhibition at 1 µM is 30 to 70%.

Which inhibition at 1 µM does the source give for `CCOCc1nnc2ccc(-c3ccc(OC(F)(F)F)cc3C)nn12` [Compound 13, 3-(ethoxymethyl)-6-[2-methyl-4-(trifluoromethoxy)phenyl]-[1,2,4]triazolo[4,3-b]pyridazine] here?
Its inhibition at 1 µM is less than 30%.

With `COC(F)(F)c1nnc2ccc(-c3ccc(OC(F)(F)F)cc3C)nn12` [Compound 14, 3-[difluoro(methoxy)methyl]-6-[2-methyl-4-(trifluoromethoxy)phenyl]-[1,2,4]triazolo[4,3-b]pyridazine] as the compound, how does the inhibition at 1 µM read?
The inhibition at 1 µM was 30 to 70%.

Which inhibition at 1 µM does the source give for `CCOC(F)(F)c1nnc2ccc(-c3ccc(OC(F)(F)F)cc3C)nn12` [Compound 15, 3-[ethoxy(difluoro)methyl]-6-[2-methyl-4-(trifluoromethoxy)phenyl]-[1,2,4]triazolo[4,3-b]pyridazine] here?
Its inhibition at 1 µM is less than 30%.

How did the inhibition at 1 µM turn out when `Cc1cc(OC(F)(F)F)ccc1-c1cn2c(COCC3CC3)nnc2cn1` [Compound 16, 3-(cyclopropylmethoxymethyl)-6-[2-methyl-4-(trifluoromethoxy)phenyl]-[1,2,4]triazolo[4,3-a]pyrazine] was run?
Its inhibition at 1 µM is 30 to 70%.

How did the inhibition at 1 µM turn out when `COCc1cc(OC(F)(F)F)ccc1-c1cn2c(COC)nnc2cn1` [Compound 17, 3-(methoxymethyl)-6-[2-(methoxymethyl)-4-(trifluoromethoxy)phenyl]-[1,2,4] triazolo[4,3-a]pyrazine] was run?
Its inhibition at 1 µM is less than 30%.

Which inhibition at 1 µM does the source give for `Cc1cc(OC(F)(F)F)ccc1-c1cn2c(C(F)(F)OCC3CC3)nnc2cn1` [Compound 18, 3-[cyclopropylmethoxy(difluoro)methyl]-6-[2-methyl-4-(trifluoromethoxy)phenyl]-[1,2,4]triazolo[4,3-a]pyrazine] here?
Its inhibition at 1 µM is greater than 70%.

Which inhibition at 1 µM does the source give for `CCOC(F)(F)c1nnc2cnc(-c3ccc(OC(F)(F)F)cc3COC)cn12` [Compound 19, 3-[ethoxy (difluoro)methyl]-6-[2-(methoxymethyl)-4-(trifluoromethoxy)phenyl]-[1,2,4] triazolo [4,3-a] pyrazine] here?
The inhibition at 1 µM was greater than 70%.

With `Cc1cc(OC(F)(F)F)ccc1-c1cn2c(COC3CC3)nnc2cn1` [Compound 20, 3-(cyclopropoxymethyl)-6-[2-methyl-4-(trifluoromethoxy)phenyl]-[1,2,4]triazolo[4,3-a]pyrazine] as the compound, how does the inhibition at 1 µM read?
Its inhibition at 1 µM is 30 to 70%.

Which inhibition at 1 µM does the source give for `COC(F)(F)c1nnc2cnc(-c3ccc(OCC(F)(F)F)cc3C)cn12` [Compound 21, 3-(difluoro(methoxy)methyl)-6-(2-methyl-4-(2,2,2-trifluoroethoxy)phenyl)-[1,2,4]triazolo[4,3-a]pyrazine] here?
Its inhibition at 1 µM is 30 to 70%.

`COC(F)(F)c1nnc2cnc(-c3ccc(OC(C)C)cc3C)cn12` [Compound 22, 3-(difluoro(methoxy)methyl)-6-(4-isopropoxy-2-methylphenyl)-[1,2,4]triazolo [4,3-a]pyrazine] was tested. Which inhibition at 1 µM did it give?
Its inhibition at 1 µM is 30 to 70%.

How did the inhibition at 1 µM turn out when `CCOC(F)(F)c1nnc2cnc(-c3ccc(OC(C)C)cc3C)cn12` [Compound 23, 3-(ethoxydifluoromethyl)-6-(4-isopropoxy-2-methylphenyl)-[1,2,4]triazolo[4,3-a]pyrazine] was run?
The inhibition at 1 µM was 30 to 70%.

`COC(F)(F)c1nnc2cnc(-c3ccc(OC(C)C)cc3)cn12` [Compound 24, 3-(difluoro(methoxy)methyl)-6-(4-isopropoxyphenyl)-[1,2,4]triazolo[4,3-a]pyrazine] was tested. Which inhibition at 1 µM did it give?
The inhibition at 1 µM was greater than 70%.

For `CCOC(F)(F)c1nnc2cnc(-c3ccc(OC(C)C)cc3)cn12` [Compound 25, 3-(ethoxydifluoromethyl)-6-(4-isopropoxyphenyl)-[1,2,4]triazolo[4,3-a]pyrazine], which inhibition at 1 µM is on record?
The inhibition at 1 µM was greater than 70%.

Which inhibition at 1 µM does the source give for `CCc1cc(OC(F)(F)F)ccc1-c1cn2c(C(F)(F)OC)nnc2cn1` [Compound 26, 3-[difluoro(methoxy)methyl]-6-[2-ethyl-4-(trifluoromethoxy)phenyl]-[1,2,4]triazolo[4,3-a]pyrazine] here?
The inhibition at 1 µM was greater than 70%.

For `COC(F)(F)c1nnc2cnc(-c3ccc(OC(F)(F)F)cc3C3CC3)cn12` [Compound 33, 6-[2-cyclopropyl-4-(trifluoromethoxy)phenyl]-3-[difluoro(methoxy)methyl]-[1,2,4]triazolo[4,3-a]pyrazine], which inhibition at 1 µM is on record?
Its inhibition at 1 µM is greater than 70%.

With `CCOC(F)(F)c1nnc2cnc(-c3ccc(OC(F)(F)F)cc3C3CC3)cn12` [Compound 34, 6-[2-cyclopropyl-4-(trifluoromethoxy)phenyl]-3-[ethoxy(difluoro)methyl]-[1,2,4]triazolo[4,3-a]pyrazine] as the compound, how does the inhibition at 1 µM read?
Its inhibition at 1 µM is greater than 70%.

For `COC(F)(F)c1nnc2cnc(-c3ccc(OC(F)(F)F)cc3COC3CC3)cn12` [Compound 35, 6-[2-(cyclopropoxymethyl)-4-(trifluoromethoxy)phenyl]-3-[difluoro(methoxy)methyl]-[1,2,4]triazolo[4,3-a]pyrazine], which inhibition at 1 µM is on record?
Its inhibition at 1 µM is 30 to 70%.

For `CCOC(F)(F)c1nnc2cnc(-c3ccc(OC(F)(F)F)cc3COC3CC3)cn12` [Compound 36, 6-[2-(cyclopropoxymethyl)-4-(trifluoromethoxy)phenyl]-3-[ethoxy(difluoro)methyl]-[1,2,4]triazolo[4,3-a]pyrazine], which inhibition at 1 µM is on record?
Its inhibition at 1 µM is 30 to 70%.

Which inhibition at 1 µM does the source give for `CCOC(F)(F)c1nnc2cnc(-c3ccc(OC4CC(F)(F)C4)cc3)cn12` [Compound 37, 6-[4-(3,3-difluorocyclobutoxy)phenyl]-3-[ethoxy(difluoro)methyl]-[1,2,4]triazolo[4,3-a]pyrazine] here?
Its inhibition at 1 µM is greater than 70%.

Which inhibition at 1 µM does the source give for `CCOC(F)(F)c1nnc2cnc(-c3ccc(OC4CC(F)(F)C4)cc3C)cn12` [Compound 38, 6-[4-(3,3-difluorocyclobutoxy)-2-methyl-phenyl]-3-[ethoxy(difluoro)methyl]-[1,2,4]triazolo[4,3-a]pyrazine] here?
The inhibition at 1 µM was greater than 70%.

For `COC(F)(F)c1nnc2cnc(-c3ccc(OC4CC(F)(F)C4)cc3C)cn12` [Compound 39, 6-[4-(3,3-difluorocyclobutoxy)-2-methyl-phenyl]-3-[difluoro(methoxy)methyl]-[1,2,4]triazolo[4,3-a]pyrazine], which inhibition at 1 µM is on record?
Its inhibition at 1 µM is 30 to 70%.

Which inhibition at 1 µM does the source give for `COC(F)(F)c1nnc2cnc(-c3cc(F)c(OC(F)(F)F)cc3C)cn12` [Compound 40, 3-[difluoro(methoxy)methyl]-6-[5-fluoro-2-methyl-4-(trifluoromethoxy)phenyl]-[1,2,4]triazolo[4,3-a]pyrazine] here?
The inhibition at 1 µM was greater than 70%.

`CCOC(C)(C)c1nnc2cnc(-c3ccc(OC(F)(F)F)cc3C)cn12` [Compound 41, 3-(1-ethoxy-1-methyl-ethyl)-6-[2-methyl-4-(trifluoromethoxy)phenyl]-[1,2,4]triazolo[4,3-a]pyrazine] was tested. Which inhibition at 1 µM did it give?
The inhibition at 1 µM was less than 30%.

With `COC(F)(F)c1nnc2cnc(-c3cc(C)c(OC(F)(F)F)cc3F)cn12` [Compound 42, 3-[difluoro(methoxy)methyl]-6-[2-fluoro-5-methyl-4-(trifluoromethoxy)phenyl]-[1,2,4]triazolo[4,3-a]pyrazine] as the compound, how does the inhibition at 1 µM read?
Its inhibition at 1 µM is greater than 70%.

Which inhibition at 1 µM does the source give for `COC(F)(F)c1nnc2cnc(-c3c(C)cc(OC(F)(F)F)cc3F)cn12` [Compound 43, 3-[difluoro(methoxy)methyl]-6-[2-fluoro-6-methyl-4-(trifluoromethoxy)phenyl]-[1,2,4]triazolo[4,3-a]pyrazine] here?
Its inhibition at 1 µM is 30 to 70%.
